PMC6155272, “Chroman-4-One Derivatives Targeting Pteridine Reductase 1 and Showing Anti-Parasitic Activity” (Molecules : A Journal of Synthetic Chemistry and Natural …, 2017)

Tests used:
A549 cells = experiment: Cytotoxicity assay against A549 cells (CellTiter-Glo); format: cell-based; conditions: 100% = not cytotoxic, 0% = cytostatic
Procedure: (§1) The assays were performed using the CellTiter-Glo assay from Promega (Madison, AL, USA). The assay detects cellular adenosine triphosphate (ATP) content with the amount of ATP being directly proportional to the number of cells present. The A549 cells were obtained from DSMZ (German Collection of Microorganisms and Cell Cultures, Braunschweig, Germany) and W1-38 cells were obtained from ATCC (ATCC® CCL-75™) and were grown in Dulbecco's Modified Eagle Medium (DMEM) from Capricorn Scientific GmbH, Ebsdorfergrund, Germany with fetal bovine serum (FBS) (10% v/v) from Capricorn Scientific GmbH, Ebsdorfergrund, Germany, streptomycin (100 μg/mL) and penicillin G (100 U/mL).

[1] = test system: L. infantum (MHOM/BR/1972/BH46) intracellular amastigotes; experiment: Activity against L. infantum intramacrophage amastigotes (high-content imaging); format: cell-based, Leishmania infantum; conditions: 50 μM, amastigotes; for inhibition at 50 µM: Leishmania infantum, read-out: % inh. L. infantum (50 μM)
Procedure: […] THP-1 cells were plated onto 384-well plates in Roswell Park Memorial Institute (RPMI) 1640 medium, Hyclone, GE Healthcare Life Sciences (Issaquah, WA, USA) containing 50 ng/mL phorbol 12-myristate 13-acetate (PMA, Sigma-Aldrich, Saint Louis, MS, USA), and incubated for 48 h. Then, 6 day-old promastigotes were added, at a ratio of 50 parasites per each THP-1 cell seeded earlier. After 24 h of infection, negative controls (0.5% DMSO), positive controls (10 μM amphotericin B) or compounds were added to the plate. Assay plates were incubated for 48 h, and then fixed with 4% paraformaldehyde and stained with Draq 5. The Operetta high-content automated imaging system was used to acquire images and the Harmony Software was optimized to quantify the host cell number, the infection ratio and the number of parasites per infected cell. The ratio between infected cells and total number of cells is then calculated, and defined as the Infection Ratio (IR). The raw data for IR values was normalized to negative—DMSO (mock)-treated infected cells—and positive (non-infected cells) controls to determine the normalized antiparasitic activity.

CYP3A4 = molecular target: T1, CYP3A4 (Homo sapiens, UniProt P08684); experiment: Cytochrome P450 3A4 assay (P450-Glo); format: in vitro ADME; conditions: for inhibition at 10 µM: human
T1 construct: purchased Promega; host or cells: baculovirus-infected insect cells
From the text: These assays made use of the PromegaP450-Glo™ (Madison, AL, USA) assay platform. Each CYP450 assay includes microsomal preparations of cytochromes from baculovirus-infected insect cells.

[2] = test system: T. brucei bloodstream forms; experiment: Activity against T. brucei bloodstream forms (resazurin-based assay); format: cell-based, Trypanosoma brucei; conditions: for EC50 / inhibition at 10 µM: bloodstream form; for EC50: dose response; for inhibition at 10 µM: read-out: % inh. T. brucei (10 μM); for selectivity index (SI): ratio between CC50 toward THP-1 and EC50 toward T. brucei
Procedure: The efficacy of compounds against T. brucei bloodstream forms was evaluated using a modified resazurin-based assay previously described in literature.

[3] = molecular target: T2, Trypanosoma brucei pteridine reductase 1 (TbPTR1) (Trypanosoma brucei brucei, UniProt O76290); experiment: TbPTR1 enzyme reporter assay (cytochrome-c reduction, 550 nm); format: biochemical; conditions: for IC50: compounds 1–3, SD agreed to ±10%; for inhibition at 50 µM: read-out: % Inhibition TbPTR1 (50 μM), 50 μM
T2 construct: made in house
T2 sequence (O76290 1-268): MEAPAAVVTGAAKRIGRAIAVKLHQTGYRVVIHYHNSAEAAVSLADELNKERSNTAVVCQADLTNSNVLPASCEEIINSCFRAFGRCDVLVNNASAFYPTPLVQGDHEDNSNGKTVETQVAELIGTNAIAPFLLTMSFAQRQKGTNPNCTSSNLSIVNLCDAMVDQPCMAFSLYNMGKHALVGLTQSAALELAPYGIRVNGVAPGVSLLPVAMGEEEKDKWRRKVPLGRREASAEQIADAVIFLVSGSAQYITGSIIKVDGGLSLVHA
Procedure: TbPTR1 and LmPTR1 were purified as reported in literature. The enzyme kinetic profile of each selected protein was characterized by a spectrophotometric assay. The experimental assay consists of enzyme kinetic reaction monitoring at 340 nm for a total time of 180 s. The enzyme kinetic activity was measured at steady-state concentration of 7,8-dihydro-L-biopterin (H2B) and NADPH substrates equal to 50 and 120 µM and varying the enzyme concentration in the 0.001–0.006 µM and 0.005–0.010–0.015–0.020–0.025–0.030 µM range for Lm- and TbPTR1, respectively. The resulting kcat values were equal to 0.68 (s^−1) and 7.2 (s^−1) for Tb- and LmPTR1, respectively. For both TbPTR1 and LmPTR1, the Km value evaluation assay for H2B- and NADPH-substrates was performed in the 0.3-0.6–0.9–1.2–2.4–4.8 µM and 3.0–6.0–12.0–40.0–90.0–190.0 µM concentrations range, respectively.
Compounds 1A–3A were evaluated as reported in our previous paper. The novel synthesized compounds 1–3 were tested towards TbPTR1 and LmPTR1 using the in vitro TbPTR1/LmPTR1 enzyme reporter assay. The experimental procedure consists of monitoring the non-enzymatic reduction reaction of cytochrome-c at 550 nm, related to the reduction reaction of H2B to tetrahydrobiopterin (H4B) by using NADPH as the cofactor. TbPTR1 and LmPTR1 enzyme activity was assayed in a buffer containing 20 mM sodium citrate (pH 6.0) in a final experimental volume equal to 600 µL. The final reaction mixture contained different substrates added in the following order: TbPTR1/LmPTR1 (0.018 µM/0.002 µM) in 20 mM Tris-HCl, glycerol 10% (v/v), pH 7.5; H2B at a final concentration equal to 0.3 µM; cytochrome-c (80 µM); Milli-Q water to a final volume of 600 µL and NADPH to a final concentration of 500 µM. Before the addition of NADPH, the reaction mixture was incubated for 10 min at 30 °C and 80 RPM. To allow the starting of the reaction, NADPH was added and the enzyme reaction was detected for a total time of 10 min at 30 °C, 550 nm. The inhibition profile characterization of compounds 1–3 was performed with a DU-640 spectrophotometer (Beckman Coulter, Brea, CA, USA). Each compound was assayed in duplicate against Tb/LmPTR1 target enzymes in the 0–10–25–50–80–150 µM concentrations range. At the different concentration values, the compounds were added to the reaction mixture (enzyme, H2B, cytochrome-c in 20 mM sodium citrate buffer and Milli-Q water) and incubated for 10 min at 30 °C, 80 RPM. The reaction was initiated by the addition of NADPH (500 µM) and monitored for 10 min at 30 °C, 550 nm. The absorbance values were processed by software analysis and transformed into the corresponding slopes. The percentages of inhibition and the IC50 values were determined.

W1-38 cells = experiment: Cytotoxicity assay against W1-38 cells (CellTiter-Glo); format: cell-based; conditions: 100% = not cytotoxic, 0% = cytostatic
Procedure: as §1

Aurora B kinase = molecular target: T3, Aurora B kinase (Homo sapiens, UniProt Q96GD4); experiment: Aurora B kinase assay (ADP-Glo); format: biochemical
T3 construct: purchased Promega
From the text: This assay made use of the ADP-Glo Kinase Enzyme System from Promega (Madison, AL, USA), which is a bioluminescent assay that employs firefly luciferase in a coupled-enzyme assay format to enable detection of adenosine diphosphate (ADP) levels from ATPase assays.

T3 sequence (Q96GD4 whole entry): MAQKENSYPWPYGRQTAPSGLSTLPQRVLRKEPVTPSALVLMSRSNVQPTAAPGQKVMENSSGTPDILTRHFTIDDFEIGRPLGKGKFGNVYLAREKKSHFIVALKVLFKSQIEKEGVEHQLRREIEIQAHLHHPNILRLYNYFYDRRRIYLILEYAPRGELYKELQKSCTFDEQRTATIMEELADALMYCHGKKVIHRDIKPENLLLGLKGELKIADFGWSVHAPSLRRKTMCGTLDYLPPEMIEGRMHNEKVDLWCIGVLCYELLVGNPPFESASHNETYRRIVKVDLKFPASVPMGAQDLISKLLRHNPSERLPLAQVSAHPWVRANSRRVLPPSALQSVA
T1 sequence (P08684 whole entry): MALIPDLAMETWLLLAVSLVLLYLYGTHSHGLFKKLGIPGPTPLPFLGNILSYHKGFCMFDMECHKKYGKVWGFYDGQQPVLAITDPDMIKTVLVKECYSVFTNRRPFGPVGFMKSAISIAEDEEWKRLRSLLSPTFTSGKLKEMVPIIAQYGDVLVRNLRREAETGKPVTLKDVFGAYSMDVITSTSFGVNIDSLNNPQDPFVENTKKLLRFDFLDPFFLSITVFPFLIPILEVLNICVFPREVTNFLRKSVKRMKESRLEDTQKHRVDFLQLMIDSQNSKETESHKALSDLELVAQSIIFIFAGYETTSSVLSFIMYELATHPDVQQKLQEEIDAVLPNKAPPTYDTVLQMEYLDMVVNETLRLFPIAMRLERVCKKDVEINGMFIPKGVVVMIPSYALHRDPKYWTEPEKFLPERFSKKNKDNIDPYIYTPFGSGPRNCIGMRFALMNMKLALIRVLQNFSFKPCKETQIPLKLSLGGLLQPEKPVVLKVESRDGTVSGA

SMILES: O=C1CC(c2cccc(O)c2)Oc2ccc(O)cc21 (stereo not shown) [Compound 1]
- % Cell growth A549 (10 μM) (A549 cells): 137%
- inhibition at 50 µM [1]: 31%
- IC50 (CYP3A4): 80 µM
- inhibition at 10 µM (CYP3A4): < 15%
- EC50 ([2]; Trypanosoma brucei): 12.6 ± 1.69 µM
- inhibition at 10 µM ([2]; Trypanosoma brucei): 44%
- EC50 [2]: 12.6 ± 1.7 µM
- selectivity index (SI) [2]: greater than 7
- % Inhibition TbPTR1 (50 μM) ([3]; 50 μM, compounds 1–3 and control): 81%
- IC50 [3]: 31 µM
- inhibition at 50 µM ([3]; compounds 1–3 and control): 81.3%
- % Cell growth W1-38 (10 μM) (W1-38 cells): 108%
- inhibition at 10 µM (Aurora B kinase): < 15%

SMILES: O=C1CC(c2ccc(O)c(O)c2)Oc2ccc(O)cc21 (stereo not shown) [Compound 3]
- % Cell growth A549 (10 μM) (A549 cells): 124%
- % inh. L. infantum (50 μM) [1]: inactive
- inhibition at 50 µM [1]: 3%
- IC50 (CYP3A4): 65 µM
- inhibition at 10 µM (CYP3A4): < 15%
- EC50 ([2]; Trypanosoma brucei): 34.8 ± 1.1 µM
- inhibition at 10 µM ([2]; Trypanosoma brucei): 14%
- EC50 [2]: 34.8 ± 1.1 µM
- IC50 [3]: 82 µM
- inhibition at 50 µM ([3]; compounds 1–3 and control): 34.6%
- % Cell growth W1-38 (10 μM) (W1-38 cells): 86%
- inhibition at 10 µM (Aurora B kinase): < 15%

SMILES: O=C1CC(c2ccc(O)cc2)Oc2ccc(O)cc21 (stereo not shown) [Compound 2]
- % Cell growth A549 (10 μM) (A549 cells): 105%
- inhibition at 50 µM [1]: 29%
- IC50 (CYP3A4): > 100 µM
- inhibition at 10 µM (CYP3A4): < 15%
- EC50 ([2]; Trypanosoma brucei): 13 ± 1.82 µM
- inhibition at 10 µM ([2]; Trypanosoma brucei): 49%
- EC50 [2]: 13 ± 1.8 µM
- selectivity index (SI) [2]: higher than 7
- IC50 [3]: 133 µM
- inhibition at 50 µM ([3]; compounds 1–3 and control): 17.7%
- % Cell growth W1-38 (10 μM) (W1-38 cells): 91%
- inhibition at 10 µM (Aurora B kinase): < 15%
